Assay [1] has as its target Mitogen-activated protein kinase 14 (Homo sapiens, UniProt Q16539). The assay can be described thus: Selectivity interaction (Kinase panel (KiNativ target engagement assay in Jurkat cells)) EUB0001635a MAPK14. It is filed as cell-based. Particulars: Selectivity number of off-targets 0.0, Selectivity number of targets 233.0, Source Knowledge https://www.sciencedirect.com/science/article/pii/S2451945619300674?via%3Dihub, at 1 µM.

The target in assay [2] is Ribosomal protein S6 kinase alpha-2 (Homo sapiens) (UniProt Q15349). Conditions: at 10 µM.
Ribosomal protein S6 kinase alpha-2 (Homo sapiens), sequence (Q15349 whole entry): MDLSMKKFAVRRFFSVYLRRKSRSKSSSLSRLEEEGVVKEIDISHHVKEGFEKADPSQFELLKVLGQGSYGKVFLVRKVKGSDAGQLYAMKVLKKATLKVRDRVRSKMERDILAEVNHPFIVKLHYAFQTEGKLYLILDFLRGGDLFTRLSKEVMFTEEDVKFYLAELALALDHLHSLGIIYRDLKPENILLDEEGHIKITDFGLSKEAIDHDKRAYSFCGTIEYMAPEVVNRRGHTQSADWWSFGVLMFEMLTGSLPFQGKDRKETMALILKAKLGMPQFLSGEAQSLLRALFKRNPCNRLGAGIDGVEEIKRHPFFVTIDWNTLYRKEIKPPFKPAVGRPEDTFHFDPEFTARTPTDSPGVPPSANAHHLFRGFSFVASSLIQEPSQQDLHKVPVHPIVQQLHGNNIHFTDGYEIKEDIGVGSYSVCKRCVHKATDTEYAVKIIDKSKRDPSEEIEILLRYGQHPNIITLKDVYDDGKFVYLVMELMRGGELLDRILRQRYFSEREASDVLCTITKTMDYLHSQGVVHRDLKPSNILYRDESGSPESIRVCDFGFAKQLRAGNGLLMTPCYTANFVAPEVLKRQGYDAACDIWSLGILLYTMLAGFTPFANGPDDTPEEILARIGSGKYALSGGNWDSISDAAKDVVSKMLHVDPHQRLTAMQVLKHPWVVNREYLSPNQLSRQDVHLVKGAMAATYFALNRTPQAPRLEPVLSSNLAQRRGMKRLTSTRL
For assay [3], the target named is T1, Ephrin type-B receptor 6 (Homo sapiens) (UniProt O15197).
T1 sequence (whole entry): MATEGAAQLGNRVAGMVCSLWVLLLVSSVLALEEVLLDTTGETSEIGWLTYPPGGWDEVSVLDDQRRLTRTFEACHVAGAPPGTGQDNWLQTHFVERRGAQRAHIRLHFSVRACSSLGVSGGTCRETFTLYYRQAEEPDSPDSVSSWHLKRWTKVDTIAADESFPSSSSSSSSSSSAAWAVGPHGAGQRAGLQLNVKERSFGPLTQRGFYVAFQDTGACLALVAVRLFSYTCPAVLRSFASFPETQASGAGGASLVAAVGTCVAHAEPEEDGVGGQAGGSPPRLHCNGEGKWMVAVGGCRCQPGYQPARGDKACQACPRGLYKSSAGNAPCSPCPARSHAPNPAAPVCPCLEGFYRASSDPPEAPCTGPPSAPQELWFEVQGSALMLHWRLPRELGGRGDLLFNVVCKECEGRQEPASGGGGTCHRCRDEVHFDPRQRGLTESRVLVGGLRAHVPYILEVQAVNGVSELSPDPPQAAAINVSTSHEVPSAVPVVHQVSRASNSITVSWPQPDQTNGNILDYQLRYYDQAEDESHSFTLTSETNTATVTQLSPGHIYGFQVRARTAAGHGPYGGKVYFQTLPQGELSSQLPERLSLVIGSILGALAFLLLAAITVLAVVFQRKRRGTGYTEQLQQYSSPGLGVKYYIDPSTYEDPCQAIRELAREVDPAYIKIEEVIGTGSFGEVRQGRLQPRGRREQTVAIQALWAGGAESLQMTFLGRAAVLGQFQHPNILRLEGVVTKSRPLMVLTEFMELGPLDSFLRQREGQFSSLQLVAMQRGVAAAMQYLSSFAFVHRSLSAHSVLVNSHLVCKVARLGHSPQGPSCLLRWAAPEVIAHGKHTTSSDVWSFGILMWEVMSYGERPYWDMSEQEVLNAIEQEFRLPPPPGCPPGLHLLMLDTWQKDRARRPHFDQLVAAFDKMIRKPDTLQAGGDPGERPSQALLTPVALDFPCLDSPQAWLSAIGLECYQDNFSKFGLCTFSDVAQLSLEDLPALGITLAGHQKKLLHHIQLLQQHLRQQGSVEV
Particulars: at 10 µM.

The target in assay [4] is Dual specificity testis-specific protein kinase 1 (Homo sapiens) (UniProt Q15569). Kind of assay: Selectivity interaction (KinomeScan (DiscoverX)) EUB0000666a TESK1. Particulars: at 10 µM.
The target in assay [5] is Serine/threonine-protein kinase 10 (Homo sapiens) (UniProt O94804). Kind of assay: Selectivity interaction (KinomeScan (DiscoverX)) EUB0000229b STK10. Conditions: at 10 µM.
For assay [6], the target named is Receptor-interacting serine/threonine-protein kinase 2 (Homo sapiens, UniProt O43353). Kind of assay: Selectivity interaction (KinomeScan (DiscoverX)) EUB0001619a RIPK2. Particulars: at 1 µM.
Receptor-interacting serine/threonine-protein kinase 2, sequence (O43353 whole entry): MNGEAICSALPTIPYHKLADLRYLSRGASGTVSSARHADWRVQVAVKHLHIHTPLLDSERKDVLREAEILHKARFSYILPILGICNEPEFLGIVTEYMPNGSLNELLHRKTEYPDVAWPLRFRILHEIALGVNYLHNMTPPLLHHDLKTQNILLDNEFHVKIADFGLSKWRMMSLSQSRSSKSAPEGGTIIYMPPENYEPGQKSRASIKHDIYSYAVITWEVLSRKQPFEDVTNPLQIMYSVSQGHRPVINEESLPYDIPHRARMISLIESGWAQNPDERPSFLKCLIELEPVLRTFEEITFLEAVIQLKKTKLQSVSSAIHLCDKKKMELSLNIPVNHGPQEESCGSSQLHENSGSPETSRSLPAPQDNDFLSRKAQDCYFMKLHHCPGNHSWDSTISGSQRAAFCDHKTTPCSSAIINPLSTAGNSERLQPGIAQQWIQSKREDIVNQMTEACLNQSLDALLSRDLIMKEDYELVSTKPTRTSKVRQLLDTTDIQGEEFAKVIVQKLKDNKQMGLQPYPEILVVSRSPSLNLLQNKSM
Assay [7] addresses T2, Dual specificity mitogen-activated protein kinase kinase 7 (Homo sapiens) (UniProt O14733).
T2 sequence (whole entry): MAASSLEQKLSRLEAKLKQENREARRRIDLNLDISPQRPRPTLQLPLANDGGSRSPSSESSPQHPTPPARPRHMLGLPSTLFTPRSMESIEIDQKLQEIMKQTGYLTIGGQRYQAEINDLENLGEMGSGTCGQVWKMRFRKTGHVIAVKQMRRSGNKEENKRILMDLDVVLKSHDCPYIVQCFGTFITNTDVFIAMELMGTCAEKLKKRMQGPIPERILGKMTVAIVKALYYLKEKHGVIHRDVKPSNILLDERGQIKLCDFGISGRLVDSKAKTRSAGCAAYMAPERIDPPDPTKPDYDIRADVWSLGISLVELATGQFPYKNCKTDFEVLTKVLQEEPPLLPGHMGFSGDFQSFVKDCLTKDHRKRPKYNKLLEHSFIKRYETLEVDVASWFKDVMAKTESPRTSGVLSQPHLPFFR
Kind of assay: Selectivity interaction (ActivX KiNativ screen (kinase selectivity in THP-1 cell lysates)) EUB0000639a MAP2K7. It is filed as subcellular. Particulars: lysate.

Assay [8] deals with Ribosomal protein S6 kinase alpha-5 (Homo sapiens) (UniProt O75582). Conditions: at 10 µM.
Ribosomal protein S6 kinase alpha-5 (Homo sapiens), sequence (O75582 whole entry, looked up, canonical isoform): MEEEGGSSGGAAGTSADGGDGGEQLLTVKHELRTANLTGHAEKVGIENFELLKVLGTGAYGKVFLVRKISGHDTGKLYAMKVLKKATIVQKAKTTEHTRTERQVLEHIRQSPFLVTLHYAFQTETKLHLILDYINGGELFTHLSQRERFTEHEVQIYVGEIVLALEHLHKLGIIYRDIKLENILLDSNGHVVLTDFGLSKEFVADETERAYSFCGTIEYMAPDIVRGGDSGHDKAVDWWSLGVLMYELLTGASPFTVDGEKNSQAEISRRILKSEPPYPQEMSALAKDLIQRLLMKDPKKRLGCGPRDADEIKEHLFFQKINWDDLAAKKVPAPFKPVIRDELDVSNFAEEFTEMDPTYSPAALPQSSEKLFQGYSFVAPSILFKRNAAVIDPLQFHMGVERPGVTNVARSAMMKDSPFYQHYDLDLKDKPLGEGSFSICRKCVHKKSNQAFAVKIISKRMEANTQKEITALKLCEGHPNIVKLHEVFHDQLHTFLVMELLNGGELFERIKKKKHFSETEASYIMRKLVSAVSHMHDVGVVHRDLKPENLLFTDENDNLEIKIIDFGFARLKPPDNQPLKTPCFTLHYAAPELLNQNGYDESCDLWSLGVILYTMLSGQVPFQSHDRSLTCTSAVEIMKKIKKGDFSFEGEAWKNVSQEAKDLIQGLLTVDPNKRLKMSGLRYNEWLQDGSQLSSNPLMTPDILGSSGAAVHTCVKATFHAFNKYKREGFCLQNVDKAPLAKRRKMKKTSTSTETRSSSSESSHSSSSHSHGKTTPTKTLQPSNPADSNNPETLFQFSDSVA
The target of assay [9] is Casein kinase I isoform gamma-3 (Homo sapiens) (UniProt Q9Y6M4). Kind of assay: Selectivity interaction (KinomeScan (DiscoverX)) EUB0001049a CSNK1G3. Particulars: at 1 µM.
Assay [10] deals with Ephrin type-A receptor 7 (Homo sapiens) (UniProt Q15375). The assay can be described thus: Selectivity interaction (KinomeScan (DiscoverX)) EUB0000618a EPHA7. Conditions: at 10 µM.
Ephrin type-A receptor 7 (Homo sapiens), sequence (Q15375 28-998 limits assumed): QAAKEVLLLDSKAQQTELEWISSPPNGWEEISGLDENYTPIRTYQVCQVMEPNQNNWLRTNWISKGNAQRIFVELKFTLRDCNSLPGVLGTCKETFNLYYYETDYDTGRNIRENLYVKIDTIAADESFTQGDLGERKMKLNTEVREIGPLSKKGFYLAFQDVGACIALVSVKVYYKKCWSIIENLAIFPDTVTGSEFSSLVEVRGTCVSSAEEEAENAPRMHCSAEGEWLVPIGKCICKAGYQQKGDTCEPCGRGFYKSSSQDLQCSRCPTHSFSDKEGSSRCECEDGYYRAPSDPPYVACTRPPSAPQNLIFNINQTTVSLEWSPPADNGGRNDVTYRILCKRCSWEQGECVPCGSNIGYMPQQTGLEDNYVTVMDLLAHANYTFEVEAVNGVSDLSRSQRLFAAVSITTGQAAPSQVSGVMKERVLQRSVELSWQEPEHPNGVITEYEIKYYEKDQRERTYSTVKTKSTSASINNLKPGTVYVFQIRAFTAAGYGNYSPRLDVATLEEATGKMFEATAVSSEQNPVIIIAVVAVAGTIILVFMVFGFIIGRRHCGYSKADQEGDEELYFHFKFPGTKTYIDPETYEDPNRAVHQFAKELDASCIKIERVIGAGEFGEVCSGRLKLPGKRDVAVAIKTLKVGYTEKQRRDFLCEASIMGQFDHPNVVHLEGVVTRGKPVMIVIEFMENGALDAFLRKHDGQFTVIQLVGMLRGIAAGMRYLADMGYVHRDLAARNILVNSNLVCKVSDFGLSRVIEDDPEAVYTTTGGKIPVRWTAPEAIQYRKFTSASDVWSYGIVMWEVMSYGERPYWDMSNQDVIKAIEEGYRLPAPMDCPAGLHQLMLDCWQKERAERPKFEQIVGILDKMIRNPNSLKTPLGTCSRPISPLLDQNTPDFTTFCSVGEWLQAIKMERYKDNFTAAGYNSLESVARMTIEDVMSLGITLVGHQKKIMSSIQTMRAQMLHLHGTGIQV
Assay [11] concerns the target Serine/threonine-protein kinase SIK3 (Homo sapiens) (UniProt Q9Y2K2). The assay can be described thus: Selectivity interaction (KinomeScan (DiscoverX)) EUB0000618a SIK3. Particulars: at 10 µM.
Assay [12] concerns the target T3, Interleukin-1 receptor-associated kinase 3 (Homo sapiens) (UniProt Q9Y616).
T3 sequence (whole entry): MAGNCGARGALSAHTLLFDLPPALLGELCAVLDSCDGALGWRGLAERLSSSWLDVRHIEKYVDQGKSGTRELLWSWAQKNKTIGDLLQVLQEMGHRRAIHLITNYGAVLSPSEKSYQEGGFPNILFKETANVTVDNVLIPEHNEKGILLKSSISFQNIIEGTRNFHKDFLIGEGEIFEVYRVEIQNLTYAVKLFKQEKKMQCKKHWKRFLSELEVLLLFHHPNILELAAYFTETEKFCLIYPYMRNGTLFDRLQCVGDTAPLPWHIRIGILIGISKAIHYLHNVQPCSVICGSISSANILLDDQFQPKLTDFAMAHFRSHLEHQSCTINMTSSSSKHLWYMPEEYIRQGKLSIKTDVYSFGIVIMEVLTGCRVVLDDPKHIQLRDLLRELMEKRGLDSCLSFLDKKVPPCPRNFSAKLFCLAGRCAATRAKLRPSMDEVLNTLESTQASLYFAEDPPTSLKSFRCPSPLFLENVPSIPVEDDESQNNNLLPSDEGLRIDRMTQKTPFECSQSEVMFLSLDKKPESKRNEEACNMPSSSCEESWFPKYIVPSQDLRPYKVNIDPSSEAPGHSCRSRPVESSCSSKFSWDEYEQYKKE
The assay can be described thus: Selectivity interaction (KinomeScan (DiscoverX)) EUB0000618a IRAK3. Particulars: at 10 µM.

Assay [13] deals with RAC-gamma serine/threonine-protein kinase (Homo sapiens, UniProt Q9Y243). The assay can be described thus: Selectivity interaction (KinomeScan (DiscoverX)) EUB0000618a AKT3. Conditions: at 10 µM.

Serine/threonine-protein kinase SIK3 (Homo sapiens), sequence (Q9Y2K2 whole entry, looked up): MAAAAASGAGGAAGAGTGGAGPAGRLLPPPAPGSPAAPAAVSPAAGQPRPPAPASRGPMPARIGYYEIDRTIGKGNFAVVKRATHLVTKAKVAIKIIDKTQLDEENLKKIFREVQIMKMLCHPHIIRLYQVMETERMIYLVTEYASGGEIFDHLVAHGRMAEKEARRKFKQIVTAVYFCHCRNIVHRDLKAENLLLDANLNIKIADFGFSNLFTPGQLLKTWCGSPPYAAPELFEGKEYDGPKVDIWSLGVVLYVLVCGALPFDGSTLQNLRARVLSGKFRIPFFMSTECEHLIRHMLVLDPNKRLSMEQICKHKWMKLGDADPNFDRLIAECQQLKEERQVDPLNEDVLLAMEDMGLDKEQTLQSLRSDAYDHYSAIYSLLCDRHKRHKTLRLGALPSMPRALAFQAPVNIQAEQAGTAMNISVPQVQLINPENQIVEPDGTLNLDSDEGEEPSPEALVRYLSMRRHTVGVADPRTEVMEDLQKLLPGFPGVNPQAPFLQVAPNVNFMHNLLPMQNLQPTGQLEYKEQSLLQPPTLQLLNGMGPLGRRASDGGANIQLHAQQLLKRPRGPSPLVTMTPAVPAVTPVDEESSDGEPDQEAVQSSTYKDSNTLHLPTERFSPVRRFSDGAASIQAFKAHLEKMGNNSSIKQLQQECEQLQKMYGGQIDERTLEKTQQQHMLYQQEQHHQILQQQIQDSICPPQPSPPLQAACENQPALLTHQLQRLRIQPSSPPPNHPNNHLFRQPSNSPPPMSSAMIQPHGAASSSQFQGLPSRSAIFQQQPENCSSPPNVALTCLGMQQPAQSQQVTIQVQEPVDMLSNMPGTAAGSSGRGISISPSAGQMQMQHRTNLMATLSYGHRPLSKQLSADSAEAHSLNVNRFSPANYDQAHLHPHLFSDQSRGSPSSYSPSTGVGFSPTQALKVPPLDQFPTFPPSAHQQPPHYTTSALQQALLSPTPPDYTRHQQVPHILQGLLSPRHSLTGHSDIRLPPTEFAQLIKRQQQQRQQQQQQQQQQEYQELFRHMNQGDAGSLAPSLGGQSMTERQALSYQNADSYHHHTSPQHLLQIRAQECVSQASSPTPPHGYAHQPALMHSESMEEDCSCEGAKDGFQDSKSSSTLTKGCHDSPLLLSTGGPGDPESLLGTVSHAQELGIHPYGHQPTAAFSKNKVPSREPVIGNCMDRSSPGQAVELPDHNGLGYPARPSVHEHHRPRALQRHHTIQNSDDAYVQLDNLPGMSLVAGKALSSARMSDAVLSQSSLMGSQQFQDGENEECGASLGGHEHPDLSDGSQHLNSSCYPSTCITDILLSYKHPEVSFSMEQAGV
Mitogen-activated protein kinase 14, sequence (Q16539 whole entry): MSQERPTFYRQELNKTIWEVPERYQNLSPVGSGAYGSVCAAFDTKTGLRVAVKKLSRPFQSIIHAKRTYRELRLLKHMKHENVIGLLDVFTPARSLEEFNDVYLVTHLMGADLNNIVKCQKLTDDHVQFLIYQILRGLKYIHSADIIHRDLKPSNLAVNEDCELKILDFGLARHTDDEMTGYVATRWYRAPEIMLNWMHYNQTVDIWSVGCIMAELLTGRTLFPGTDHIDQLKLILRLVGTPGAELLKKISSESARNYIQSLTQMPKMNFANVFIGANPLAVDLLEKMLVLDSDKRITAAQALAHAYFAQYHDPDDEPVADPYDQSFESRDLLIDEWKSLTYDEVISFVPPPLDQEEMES

On to `C=CC(=O)Nc1ccc(C(=O)Nc2[nH]nc3c2CN(C(=O)N[C@H](CN(C)C)c2ccccc2)C3(C)C)cc1`, for which the % of engagement in [1] was -6.9%.

Turning to `Cc1cc([C@@H](C)Nc2ccccc2C(=O)O)c2nc(N3CCOCC3)cc(=O)n2c1` [AZD-6482], the % of control in [2] turned out to be 98%; in [3], 41%.

Compound `O=C(NOC[C@H](O)CO)c1ccc(F)c(F)c1Nc1ccc(I)cc1F` had a % of control in [4] of 98%.

For the compound `COc1cc(N(C)c2ccnc3ccc(C(F)(F)F)cc23)cc(OC)c1OC`, the % binding in [5] worked out at 84%.

For `N#Cc1cccc(-c2c[nH]c3ncnc(N4CCOCC4)c23)c1`, the % of control in [6] stood at 84%.

Consider `CC[C@@H]1[C@H](F)C(=O)N[C@@H]1COc1nccc2cc(C(N)=O)c(OC)cc12` [ZIMLOVISERTIB], for which the % of inhibition in assay [7] (at 0.01 µM) is 7.8%; in assay [7] (at 0.04 µM), 0.6%; in assay [7] (at 0.2 µM), 2.5%; in [7] (at 1 µM) it was 2.2%; in assay [7] (at 5 µM), -7.1%.

In assay [8], `CCN(CC)CCCCNc1ncc2cc(-c3cc(OC)cc(OC)c3)c(NC(=O)NC(C)(C)C)nc2n1` yielded a % of control of 100%.

Compound `COc1cc(Nc2nc(C)cc(-c3cnn4nc(OC)ccc34)n2)cc(C(F)(F)F)c1` registered a % of control in assay [9] of 98%.

As for `O[C@H]1CC[C@H](Nc2ncc3nc(Nc4c(F)cc(F)cc4F)n([C@H]4CCOC4)c3n2)CC1`, the % of control in assay [10] worked out at 100%; in [11], 22%; in assay [12], 100%; in [13] it was 100%.

These data come from ChEMBL document CHEMBL5465560, “Selectivity Literature for EUbOPEN Chemogenomic Library” (2024).
